Data taken from patent US20020183332A1, “USE OF CYAMEMAZINE IN THE TREATMENT OF ABRUPT BENZODIAZEPHINE WITHDRAWAL” (priority 1999, published 2002).

How the values were obtained:
[1] = system: benzodiazepine withdrawal syndrome; conditions: LADER et al. 1987, SCHWEIZER et al. 1998; cited from earlier work
[2] = system: patients treated with benzodiazepines for 3 months or more and requiring benzodiazepine withdrawal; experiment: randomized double-blind clinical trial: abrupt benzodiazepine withdrawal with cyamemazine substitution versus gradual withdrawal with bromazepam; type: in vivo; conditions: for patients in whom the withdrawal is still a success: after 6 months; for patients in whom the treatment is successful: after 6 weeks of study, benzodiazepine withdrawal, 168 patients
alcohol uptake in rats = conditions: NAASILA et al. 1998; cited from earlier work

Row | SMILES | effect on the withdrawal syndrome [1] | patients in whom the withdrawal is still a success [2] | patients in whom the treatment is successful [2] | action on alcohol uptake (alcohol uptake in rats) | maximum amplitude of the anxiety rebound ([2]; HARS scale (HAMILTON anxiety scale), cyamemazine group versus bromazepam group) | frequency of occurrence of a withdrawal syndrome ([2]; RICKELS withdrawal scale, cyamemazine group versus bromazepam group) | maximum amplitude of the anxiety rebound ([2]; ZUNG anxiety scale, cyamemazine group versus bromazepam group) | percentage of patients exhibiting an anxiety rebound ([2]; cyamemazine group versus bromazepam group)
1 | O=C1CC2(CCCC2)CC(=O)N1CCCCN1CCN(c2ncccn2)CC1 [buspirone] | not shown any significant effect | – | – | – | – | – | – | –
2 | O=C1CN=C(c2ccccn2)c2cc(Br)ccc2N1 [bromazepam] | – | 75% | 85% | – | – | – | – | –
3 | CC(CN(C)C)CN1c2ccccc2Sc2ccc(C#N)cc21 (stereo not shown) [cyamemazine] | – | 90% | 95% | decrease of alcohol uptake | no significant difference | no significant difference | no significant difference | no significant difference
